The source of these data is doi:10.1101/211839v1 (biorxiv, 2017).

The target of assay [1] is T1, HDAC11 (untagged) (Homo sapiens, UniProt Q96DB2).
T1 sequence (Q96DB2 1-347): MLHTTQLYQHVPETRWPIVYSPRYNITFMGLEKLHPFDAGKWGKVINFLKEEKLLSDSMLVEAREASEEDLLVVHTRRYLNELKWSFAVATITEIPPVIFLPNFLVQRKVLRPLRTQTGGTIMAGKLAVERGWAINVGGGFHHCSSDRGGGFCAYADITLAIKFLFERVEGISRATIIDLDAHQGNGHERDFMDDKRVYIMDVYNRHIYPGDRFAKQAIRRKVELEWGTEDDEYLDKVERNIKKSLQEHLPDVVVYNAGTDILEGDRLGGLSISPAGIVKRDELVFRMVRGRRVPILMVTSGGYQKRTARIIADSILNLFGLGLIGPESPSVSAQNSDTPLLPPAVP
Nature of the assay: continuous fluorescence assay, trypsin-coupled, initial rates. Conditions: […] enzyme, HEPES pH […], no BSA, […] °C. The format is biochemical.

In assay [2] the target is T1, HDAC11 (untagged). Nature of the assay: end-point fluorescence demyristoylase assay, trypsin release of AMC. Format: biochemical.

For the compound Ac-ETDKmyr-AMC [6e], the Km in assay [1] came to 60 µM.

With `C/C=C1\NC(=O)[C@H]2CSSCC/C=C/[C@H](CC(=O)N[C@H](C(C)C)C(=O)N2)OC(=O)[C@H](C(C)C)NC1=O` [romidepsin], the IC50 in assay [2] was more than 100 µM.

Broadly, the Km is the concentration of substrate that gives half-maximal velocity. Usually IC50 stands for the concentration that gives 50% inhibition. Read a high IC50 as weaker potency in that assay.
